For three molecules, IC50 results are on record in ChEMBL document CHEMBL3853274, “Ibogan, Aspidosperman, Vincamine, and Bisindole Alkaloids from a Malayan Tabernaemontana corymbosa: Iboga Alkaloids with C-20α Substitution” (J Nat Prod, 2016).

Format in all cases: functional, cell-based
Assay [1] in a line: Cytotoxicity against vincristine-sensitive human KB cells after 72 hrs by MTT assay.
Assay [2] can be described thus: Cytotoxicity against vincristine-resistant human KB/VJ300 cells after 72 hrs by MTT assay. As to conditions: KB/VJ300, 72 h.
Assay [3] can be described thus: Cytotoxicity against vincristine-resistant human KB/VJ300 cells in presence of 0.12 uM vincristine after 72 hrs by MTT assay. As to conditions: KB/VJ300, 72 h.

`C/C=C1/CN(C)[C@H]2Cc3c([nH]c4ccccc34)[C@@H](c3ccc4c5c([nH]c4c3)[C@@H]3C[C@H]4C[C@H]([C@H](C)O)[C@@H]3N(CC5)C4)C[C@@H]1[C@@H]2C(=O)OC`: the figures for the half-inhibitory concentration (IC50) in assay [1], in assay [2] and in assay [3] were 4600 nM, 4100 nM and 1800 nM, respectively.

As to `C/C=C1/CN(C)[C@H]2Cc3c([nH]c4ccccc34)[C@@H](c3ccc4c5c([nH]c4c3)[C@@H]3C[C@H]4C[C@H]([C@@H](C)O)[C@@H]3N(CC5)C4)C[C@@H]1[C@@H]2C(=O)OC`, the IC50 was 3300 nM in assay [1], 2700 nM in assay [2] and 1300 nM in assay [3].

As to `C/C=C1/CN(C)[C@H]2Cc3c([nH]c4ccccc34)[C@@H](c3ccc4c5c([nH]c4c3)[C@@H]3C[C@H]4C[C@H](CC)[C@@H]3N(CC5)C4)C[C@@H]1[C@@H]2C(=O)OC`, the IC50 was 1200 nM in assay [1], 1400 nM in assay [2] and 900 nM in assay [3].
